Data published in article PMC9849758, “Chemically diverse activity-based probes with unexpected inhibitory mechanisms targeting trypsin-like serine proteases” (Frontiers in Chemistry, 2023).
Entries after “also recorded” stand apart in the source; their conditions may differ. Structures can show the parent of a compound that is named as a salt.

Columns and labels:
[1] = molecular target: T1, CatG (Homo sapiens, UniProt P08311); test: Kinetic progress curves (kapp, mechanism); type: biochemical; set-up: Cathepsin G (cathepsin G human neutrophil, Sigma-Aldrich); purchased Sigma-Aldrich; host or cells: human neutrophil; details: defined by the progress curves: slow-binding (Rev.) or irreversible (Irrev.)
T1 sequence (P08311 21-255): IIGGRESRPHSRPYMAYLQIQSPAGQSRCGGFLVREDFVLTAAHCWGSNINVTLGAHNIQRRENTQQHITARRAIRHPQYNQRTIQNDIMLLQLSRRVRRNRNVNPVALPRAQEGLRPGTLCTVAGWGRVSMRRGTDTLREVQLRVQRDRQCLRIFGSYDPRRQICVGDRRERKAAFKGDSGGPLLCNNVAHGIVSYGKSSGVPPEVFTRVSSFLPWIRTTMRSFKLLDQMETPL
Description: (§1) Because the compounds described in this paper were previously described as irreversible inhibitors, the IC50 value is inversely correlated with the second-order rate constant of inactivation. For a simple pseudo-first-order inactivation process, the activity after incubation with inhibitor (vi) varies with the inhibitor concentration (i), as described in the following equation: vi=v0·e^−kit where v0 is the activity in the absence of an inhibitor, k is the second-order rate constant of inactivation, and t is the time. The inactivation rate constant was determined from the time course of inhibition.
(§2) Kinetic assays were performed in the following manner. The inhibitor was mixed with the substrate, and the buffer solution with the enzyme was added at the time zero. The progress curves show the release of pNA or AMC as a function of time. Initially, no inhibitor is bound to the enzyme, and the tangent to the progress curve (dA/dt) is proportional to the free enzyme concentration. The free enzyme concentration decreases over time due to inhibitor binding kinetics, as described above. Progress curves were recorded in pseudo-first-order conditions ([I]0>>[E]0) and with less than 10% conversion of the substrate during the entire time course. In these conditions, dA/dt decreases exponentially with time. The progress curves were fitted with the integrated rate equation with GraFit7 to yield a value for kobs, a pseudo-first-order rate constant. At=Ao+vs∙t+vi−vs∙1−e^−kobs∙t/kobs where At is the absorbance at time t, A0 is the absorbance at time zero, vi is the initial rate and vs is the velocity at the steady-state.
(§3) The apparent second-order rate constant (kapp) was calculated from the slope of the linear part of the plot of kobs vs. the inhibitor concentration ([I]0). In the case of competition between the inhibitor and the substrate, kapp is smaller than the “real” second-order rate constant k discussed above because a certain fraction of the enzyme is present as an enzyme-substrate complex. kapp depends on the substrate concentration used in the experiment, as described by [Lambeir et al. (1996)].
(§4) The apparent equilibrium constants were obtained from the following equations, vi/vo=1/1+I/K1; vS/vo=1/1+I/KI* where vi is the initial rate, vs is the steady-state velocity and vo is the uninhibited initial rate.

[2] = molecular target: T2, uPA (Homo sapiens, UniProt P00749); test: Kinetic progress curves (kapp, mechanism); type: biochemical; details: for uPA kapp: apparent second-order rate constant from progress curves, mean ± SD; for uPA mechanism of inhibition: defined by the progress curves: slow-binding (Rev.) or irreversible (Irrev.)
T2 construct: purchased HYPHEN BioMed
Description: as §1, §2, §3, §4

[3] = molecular target: T3, β-tryptase (Homo sapiens, UniProt P20231); test: Labeling and detection of recombinant proteases (SDS-PAGE blot, NeutrAvidin-HRP); type: binding; details: 1 µM ABP, 100 ng protease, 30 min 37°C, denaturing SDS-PAGE blot
Description: Recombinant proteases (100 ng) were labeled with 1 µM ABP in reaction buffer in a final volume of 40 µL for 30 min at 37°C. After the addition of 4X Laemmli buffer (Bio-Rad, GmbH) supplemented with Bond-Breaker Tris (2-CarboxyEthyl)Phosphine (TCEP) Solution (Thermo Scientific, United States), the samples were heated at 95°C for 5 min and loaded into 4%–20% Mini-Protean TGX precast gels (Bio-Rad, GmbH). After electrophoresis, the proteins were blotted onto nitrocellulose membranes using the Trans-Blot Transfer Turbo System (Bio-Rad). Membranes were incubated with NeutrAvidin-HRP (1:50,000), and bands were visualized with ECL Select Western Blot Detection Reagent (GE Healthcare Life Sciences) by chemiluminescence (Chemidoc XRS; Bio-Rad). The molecular weight of each band was determined with the Image Lab Software v5 (Bio-Rad).
To further characterize the newly synthesized compounds and their potential to be used as ABPs, nine desthiobiotin probes were used for the labeling and detection of recombinant proteases. The arginine (45b–46b) and the proline-lysine (58b) desthiobiotin probes were used as reference compounds. Whereas the benzyl guanidine (50b, 52b, 54b) and phenyl guanidine probes (55b–57b) were used to determine whether the mechanism of inhibition (reversible or irreversible) is an obstacle to visualize the proteases. Samples of human recombinant proteases (trypsin-3, β-tryptase, and CatG) were incubated with the different probes before electrophoresis and detection with NeutrAvidin-HRP on a Western blot. Figure 7A illustrates the ability of the desthiobiotin probes to indicate the presence of the corresponding trypsin-like enzyme. […] This effect can be explained due to the strong interactions between the active site of the protease and the probes. The high affinity and the slow off-rates were described in Table 5 by the equilibrium constants KI*. Assuming that there is an excess of inhibitor over enzyme, the free inhibitor concentration must be very low, lower than the KI*, in order for the complex to dissociate. Therefore, the high affinity complex E*I survives during the whole process of labeling, gel electrophoresis, and visualization.

[4] = molecular target: T3, β-tryptase; test: Kinetic progress curves (kapp, K1, KI*, mechanism); type: biochemical; set-up: purchased EnzoLife Sciences; details: for β-tryptase mechanism of inhibition: defined by the progress curves: slow-binding (Rev.) or irreversible (Irrev.)
Description: as §1, §2, §3, §4

[5] = β-tryptase K1, apparent equilibrium constant of the first step of slow-binding, mean ± SD
[6] = β-tryptase KI*, apparent equilibrium constant of the overall process, mean ± SD

T3 sequence (P20231 31-275): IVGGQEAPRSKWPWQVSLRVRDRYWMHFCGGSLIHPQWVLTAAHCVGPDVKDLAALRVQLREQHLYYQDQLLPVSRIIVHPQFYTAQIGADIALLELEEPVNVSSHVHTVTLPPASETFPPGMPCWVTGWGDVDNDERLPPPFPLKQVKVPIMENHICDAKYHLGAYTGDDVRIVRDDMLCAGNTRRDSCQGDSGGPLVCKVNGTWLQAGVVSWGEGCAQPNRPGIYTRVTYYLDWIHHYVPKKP

Compound | CatG mechanism of inhibition [1] | uPA kapp [2] [M⁻¹ s⁻¹] | uPA mechanism of inhibition [2] | labeling of recombinant β-tryptase [3] | β-tryptase mechanism of inhibition [4] | Ki [4, 5] [nM] | Ki [4, 6] [nM] | β-tryptase kapp ([4]; apparent second-order rate constant from progress curves, mean ± SD)
C[C@@H]1NC(=O)N[C@@H]1CCCCCC(=O)NCCOCCOCCOCCn1cc(CCCOC(=O)NC(Cc2ccc(NC(=N)N)cc2)P(=O)(Oc2ccc(Cl)cc2)Oc2ccc(Cl)cc2)nn1 (stereo partly drawn) [54b] | * ^d Rev. | 230000 ± 36000 | Irrev. | can label; also recorded: slightly better resolution | reversible slow-binding mechanism; also recorded: * ^d Rev | 130 ± 30 | 20 ± 1 | –
C[C@@H]1NC(=O)N[C@@H]1CCCCCC(=O)NCCOCCOCCOCCn1cc(CCCOC(=O)NC(Cc2ccc(NC(=N)N)cc2)P(=O)(Oc2ccccc2)Oc2ccccc2)nn1 (stereo partly drawn) [50b, 3-(1-(18-((4R,5S)-5-methyl-2-oxoimidazolidin-4-yl)-13-oxo-3,6,9-trioxa-12-azaoctadecyl)-1H-1,2,3-triazol-4-yl)propyl (1-(diphenoxyphosphoryl)-2-(4-guanidinophenyl)ethyl)carbamate trifluoroacetate salt] | * ^d Rev. | 33000 ± 12000 | Irrev. | can label | Rev. | 3280 ± 500 | 410 ± 30 | 32 × 10^2 ± 613 M^−1 s^−1
